Data as given in the NIST ThermoML archive (doi:10.1016/j.jct.2016.10.023).
Numbers after ± are expanded uncertainties.

Assay: xn = mol fraction of the nth substance listed
Conditions: Constant-volume piezometry

CCCCC [pentane] + CCCO
Conditions	mass density [kg/m3]
483.15 K, 3273 kPa, Gas, x1 = 0.5	89.08 ± 0.28
483.15 K, 3361 kPa, Gas, x1 = 0.5	96.03 ± 0.32
483.15 K, 3529 kPa, Gas, x1 = 0.8	106.6 ± 0.35
483.15 K, 3605 kPa, Fluid (supercritical or subcritical phases), x1 = 0.9	123.58 ± 1.1
483.15 K, 3709 kPa, Fluid (supercritical or subcritical phases), x1 = 0.9	134.38 ± 0.85
483.15 K, 3900 kPa, Fluid (supercritical or subcritical phases), x1 = 0.9	164.27 ± 1
483.15 K, 3917 kPa, Fluid (supercritical or subcritical phases), x1 = 0.8	140.58 ± 1
483.15 K, 3927 kPa, Liquid, x1 = 0.5	373.66 ± 0.76
483.15 K, 3981 kPa, Fluid (supercritical or subcritical phases), x1 = 0.8	156.35 ± 1
483.15 K, 4002 kPa, Fluid (supercritical or subcritical phases), x1 = 0.9	189.82 ± 1.2
483.15 K, 4026 kPa, Liquid, x1 = 0.5	384.78 ± 0.79
483.15 K, 4033 kPa, Fluid (supercritical or subcritical phases), x1 = 0.8	170.11 ± 1.1
483.15 K, 4049 kPa, Fluid (supercritical or subcritical phases), x1 = 0.9	202.77 ± 1.2
483.15 K, 4053 kPa, Fluid (supercritical or subcritical phases), x1 = 0.8	176.37 ± 1.1
483.15 K, 4071 kPa, Fluid (supercritical or subcritical phases), x1 = 0.8	181.18 ± 1.1
483.15 K, 4106 kPa, Fluid (supercritical or subcritical phases), x1 = 0.8	193.54 ± 1.1
483.15 K, 4109 kPa, Fluid (supercritical or subcritical phases), x1 = 0.9	221.12 ± 1.3
483.15 K, 4156 kPa, Fluid (supercritical or subcritical phases), x1 = 0.9	233.52 ± 1.4
483.15 K, 4162 kPa, Fluid (supercritical or subcritical phases), x1 = 0.8	214.27 ± 1.2
483.15 K, 4171 kPa, Fluid (supercritical or subcritical phases), x1 = 0.9	236.99 ± 1.4
483.15 K, 4179 kPa, Fluid (supercritical or subcritical phases), x1 = 0.8	220.05 ± 1.3
483.15 K, 4189 kPa, Fluid (supercritical or subcritical phases), x1 = 0.9	241.4 ± 1.4
483.15 K, 4200 kPa, Fluid (supercritical or subcritical phases), x1 = 0.9	244.72 ± 1.4
483.15 K, 4211 kPa, Fluid (supercritical or subcritical phases), x1 = 0.8	235.17 ± 1.3
483.15 K, 4239 kPa, Fluid (supercritical or subcritical phases), x1 = 0.8	245.83 ± 1.3
483.15 K, 4277 kPa, Fluid (supercritical or subcritical phases), x1 = 0.8	259.08 ± 1.4
483.15 K, 4309 kPa, Fluid (supercritical or subcritical phases), x1 = 0.9	282.57 ± 1.5
483.15 K, 4317 kPa, Fluid (supercritical or subcritical phases), x1 = 0.8	273.08 ± 1.5
483.15 K, 4417 kPa, Fluid (supercritical or subcritical phases), x1 = 0.8	288.96 ± 1.5
483.15 K, 4435 kPa, Fluid (supercritical or subcritical phases), x1 = 0.9	302.29 ± 1.6
483.15 K, 4437 kPa, Liquid, x1 = 0.5	398.98 ± 0.82
483.15 K, 4493 kPa, Fluid (supercritical or subcritical phases), x1 = 0.8	299.8 ± 1.6
483.15 K, 4551 kPa, Fluid (supercritical or subcritical phases), x1 = 0.9	312.96 ± 1.6
483.15 K, 4646 kPa, Fluid (supercritical or subcritical phases), x1 = 0.8	316.01 ± 1.6
483.15 K, 4807 kPa, Liquid, x1 = 0.2	510.78 ± 1
483.15 K, 4877 kPa, Fluid (supercritical or subcritical phases), x1 = 0.9	334.72 ± 1.7
483.15 K, 4915 kPa, Fluid (supercritical or subcritical phases), x1 = 0.8	334.54 ± 1.7
483.15 K, 5017 kPa, Liquid, x1 = 0.5	418.13 ± 0.85
483.15 K, 5178 kPa, Fluid (supercritical or subcritical phases), x1 = 0.8	346.09 ± 1.7
483.15 K, 5428 kPa, Fluid (supercritical or subcritical phases), x1 = 0.9	354.86 ± 1.8
483.15 K, 5641 kPa, Fluid (supercritical or subcritical phases), x1 = 0.8	362.7 ± 1.8
483.15 K, 6347 kPa, Liquid, x1 = 0.5	441.94 ± 0.9
483.15 K, 7296 kPa, Liquid, x1 = 0.5	452.28 ± 0.92
483.15 K, 8060 kPa, Liquid, x1 = 0.5	459.37 ± 0.93
483.15 K, 8482 kPa, Fluid (supercritical or subcritical phases), x1 = 0.9	408.19 ± 2
483.15 K, 8984 kPa, Fluid (supercritical or subcritical phases), x1 = 0.8	419.13 ± 2.1
483.15 K, 9371 kPa, Liquid, x1 = 0.5	469.23 ± 0.95
483.15 K, 10899 kPa, Liquid, x1 = 0.2	548.38 ± 1.1
483.15 K, 16393 kPa, Fluid (supercritical or subcritical phases), x1 = 0.8	467.78 ± 2.4
483.15 K, 16725 kPa, Liquid, x1 = 0.5	507.77 ± 1
483.15 K, 19754 kPa, Liquid, x1 = 0.5	520.6 ± 1.1
483.15 K, 21392 kPa, Liquid, x1 = 0.2	582.82 ± 1.2
483.15 K, 24098 kPa, Fluid (supercritical or subcritical phases), x1 = 0.8	497.3 ± 2.5
483.15 K, 27685 kPa, Liquid, x1 = 0.2	596.46 ± 1.2
483.15 K, 28654 kPa, Liquid, x1 = 0.5	549.54 ± 1.1
483.15 K, 34153 kPa, Fluid (supercritical or subcritical phases), x1 = 0.8	521.9 ± 2.6
483.15 K, 37683 kPa, Liquid, x1 = 0.2	615.9 ± 1.3
484.15 K, 3395 kPa, Gas, x1 = 0.5	96.03 ± 0.31
485.15 K, 3427 kPa, Gas, x1 = 0.5	96.02 ± 0.32
486.15 K, 3456 kPa, Gas, x1 = 0.5	96.02 ± 0.33
487.15 K, 3750 kPa, Gas, x1 = 0.5	122.1 ± 0.41
487.15 K, 4130 kPa, Liquid, x1 = 0.5	345.19 ± 0.72
488.15 K, 3498 kPa, Gas, x1 = 0.5	96.01 ± 0.34
488.15 K, 3783 kPa, Gas, x1 = 0.5	122.1 ± 0.41
488.15 K, 4237 kPa, Liquid, x1 = 0.5	345.17 ± 0.72
489.15 K, 3815 kPa, Gas, x1 = 0.5	122.09 ± 0.42
489.15 K, 4203 kPa, Liquid, x1 = 0.5	325.83 ± 0.68
490.15 K, 3453 kPa, Liquid, x1 = 0.2	471.25 ± 0.96
491.15 K, 4012 kPa, Gas, x1 = 0.5	144.34 ± 0.49

mass density [kg/m3], Liquid
Conditions	486.15 K	488.75 K	489.55 K	489.85 K	491.65 K
x1 = 0.2	–	–	–	471.25 ± 2.8	–
x1 = 0.5	345.21 ± 2.1	325.84 ± 2	320.54 ± 1.9	–	299.15 ± 1.8
